Experimental data as given in patent US20150297619A1, “METHODS AND COMPOSITIONS FOR PRESERVING THE MUCOSAL BARRIER” (priority 2014, published 2015).

Legend:
hemorrhagic shock = assay: Hemorrhagic shock with enteral/IV/IP treatments: intestine, plasma and lung injury (Example 2); format: in vivo, rat
Experimental: Adult male Sprague Dawley rats (mean±standard deviation (SD) body weight 340±60 g, N=64, Harlan, Indianapolis, Ind.) were allowed food and water ad libitum prior to surgery. Rats were administered general anesthesia (xylazine, 4 mg/kg; ketamine 75 mg/kg IM) and remained anesthetized throughout the experiment. At the termination of experiments, rats were euthanized by infusion of B-Euthanasia IV (120 mg/kg). The femoral artery and vein were cannulated. Systolic, diastolic, heart rate, and mean arterial pressure (MAP) were recorded throughout the procedure using LabChart (AD Instruments, Dunedin, New Zealand).
Hemorrhagic Shock (HS) with Removal of Luminal Contents—Animals were grouped into no-HS (No-HS), HS with intestinal luminal contents flushed (HS-F), and HS without intestinal flush (HS-NF). No-HS animals were immediately sacrificed for tissue collection following cannulation. All other animals were subject to laparotomy before the intestine was exposed and gross morphology was photographically recorded. Enteral treatments were administered to the intestine before returning to the peritoneal cavity (Table 1). IV/IP injections were delivered following the intestinal injections.
Following the intestinal preparations, the animals were heparinized to minimize clotting in catheters and in shed blood samples (1 U/mL of calculated blood volume i.v.; assuming 6 mL blood volume per 100 g total body weight) before onset of hemorrhage. MAP was reduced to 30 mmHg by withdrawal of blood through the venous catheter (0.4 mL/min) with a 5 mL syringe. The initial 1 mL of blood drawn was collected, centrifuged (1000 g, 5 min), and the plasma was immediately frozen at […] for further analysis. The arterial pressure was monitored and adjusted by withdrawal/return of blood over the 90-min ischemic period. At the end of ischemia, the shed blood was returned to the animals (0.5 mL/min) plus 1 mL of saline (to replace the 1 mL of blood collected before shock).
Gross morphology images of the intestine were captured at the end of the reperfusion period. Post-HS blood was collected through the arterial catheter, spun (1000 g, 5 min), and the plasma was immediately frozen at […]. The animals were then euthanized and lung and jejunum specimen were snap frozen for homogenization or embedded in optimum cutting temperature (O.C.T.) (Saukura, Leiden, the Netherlands) for histological sectioning. Jejunum was chosen for analysis, as more intestinal hemorrhage is typically seen there than in the ileum in models of HS.
After hemorrhagic shock, bronchoalveolar lavage fluid (BALF) was collected by inserting an 18 gauge blunt needle into the left main bronchus of the left lung. The lunch was photographed to assess gross morphological damage. The images were blindly assessed for macroscopic lung damage. Scoring was as follows: 0, no visible lung damage and pink in color; 1, mostly pink in color with some dark red lesions starting to form around the central part of the lung near the trachea; 2, some pink color with more lesions forming and spreading throughout the lung; 3, dark red lesions through the majority of the lung surface; 4, complete lung damage in all parts of the organ surface.
To collect BALF fluid, saline (˜2.0 ml/lavage) was injected and recovered three times before centrifugation (1000 g, 5 min). Following the third wash, the lung was injected with O.C.T., embedded, and frozen. The total volume of recovered BALF fluid was measured and the fraction of saline recovered versus the amount injected was used to normalize all measurements.
Intestinal Hemorrhage—Segments of jejunum were mechanically homogenized by weight (10 ml per 1 g; 18,000 g, 20 min; stored at −80° C.) in 0.5% hexadecyltrimethyl-ammonium bromide (HTAB) in PBS (pH 6.0). Any luminal content present in the segment was included in the weighing and homogenization. […]

[1] = test system: ischemic small intestine segments (jejunum to ileum); assay: Ex vivo intestinal ischemia: transmural fluorescein transport across wall of flushed intestinal segments; design: species or system rat
Text: Intestinal Ischemia—Since intestinal properties are non-homogenous, the transmural permeability was investigated over the entire length of the jejunum and ileum. Due to physical constraints of the small intestine anatomy, it is not feasible to simultaneously analyze permeability from multiple segments in vivo. Therefore, an ex vivo approach similar to previously published studies was designed to measure permeability along the length of the small intestine.
A midline incision was made to expose the intestine in anesthetized rats. The proximal end of the jejunum (approximately 5 cm distal from the ligament of Treitz) was cannulated with a female luer to barb tube connector (⅛″ inner diameter). The intestine was removed and placed in saline immediately before euthanasia. In order to focus the analysis on permeability of the intestinal wall during ischemia in the absence of luminal contents (including the digestive proteases or cytotoxic factors from food), the lumen of the intestine was flushed with 40 ml saline using pulsatile pressure. Visual examination confirmed all solid contents were removed. Next, the intestine was cut into eight equal length segments (˜8 cm) sequentially ordered from the proximal jejunum (position 1) to the distal ileum (position 8). Both ends of each segment were cannulated with Female Luer to Barb tube connectors (thus allowing entry and exit points from the intestinal lumen to be sealed completely), secured with 4-0 suture, and the exterior portion of one adaptor on each segment sealed with clay.
To determine the transmural permeability of the intestine, all 8 segments from each animal were filled with a low molecular weight tracer as a sensitive measure of early barrier breakdown prior to the initiation of ischemia, fluorescein (332 Da M.W., 20 μg/ml from 5 mg/ml stock in ethanol; 0.308 osm/L; Sigma-Aldrich, St. Louis, Mo.) mixed with saline, glucose (100 mg/ml in saline; 0.550 moles/L; 0.863 osm/L, Sigma-Aldrich), the non-metabolizing glucose analog mannitol (100 mg/ml in saline; 0.550 moles/L; 0.863 osm/L), the serine protease inhibitor tranexamic acid (31 mg/ml in saline; 0.200 moles/L; 0.508 osm/L, Sigma-Aldrich), the MMP inhibitor doxycycline hyclate (1 mg/ml in saline; 1.955×10^−3 moles/L; 0.310 osm/L, Sigma-Aldrich), or the MMP inhibitor GM 6001 [38] (1 μg/ml in saline from 1 mg/ml stock in DMSO; 2.57×10^−6 moles/L; 0.308 osm/L, Millipore, Billerica, Md.). […]
Sealed segments were rinsed in saline, individually placed in 15 ml conical tubes containing 6 ml saline, and incubated at 37° C. for 2 hours to simulate ischemic conditions. […] Plates were read in a plate reader (FilterMax F-5 Multi-mode, Molecular Devices, Sunnyvale, Calif.) for concentration of fluorescein (excitation 494/emission 521) to measure diffusion across the wall of the intestine.
Permeability Analysis—To determine the fluorescein transport across the ischemic intestinal wall, the fluorescence at time 0 was subtracted from fluorescence values at later time points to correct for background, and fluorescence values were corrected to account for the volume reduction due to sampling during the experiment. The RFU measurements were converted to equivalent moles by using the linear relationship between concentration and fluorescein fluorescence (not shown, R^2=0.999). The transport of fluorescein across the wall (measured in moles, per time) was computed as the change in fluorescence over a 30 min interval divided by 30 min.

## NC[C@H]1CC[C@H](C(=O)O)CC1 [tranexamic acid]
Hemorrhagic shock; after HS
  MPO activity of intestinal homogenates: tended to be lower
  gross morphology of the intestine (microhemorrhages): fewer regions with microhemorrhages
Hemorrhagic shock; after HS, immunoblot
  lung VE-cadherin levels: significantly reduced
  lung VEGFR-2 levels: maintained
[1]; ex vivo ischemia, inhibitor in lumen without glucose, vs saline
  fluorescein transport rates, 30-60 min and 60-90 min periods: significantly decreased compared to the saline treated intestines

## O=C[C@H](O)[C@@H](O)[C@H](O)[C@H](O)CO [Glucose, glucose]
Hemorrhagic shock; after HS
  MPO activity of intestinal homogenates: tended to be lower
  gross morphology of the intestine (microhemorrhages): microhemorrhages most severely
  macroscopic lung injury (lung injury score): trend in reduction
Hemorrhagic shock; post-HS plasma, gel zymography
  plasma MMP-9 and neutrophil derived pro-MMP-9 activity: significantly more activity compared to HS+SAL
[1]; ex vivo, treatment in lumen, two-hour ischemic period
  fluorescein transport across the wall of the intestine: drastically reduced
